The values below come from ChEMBL document CHEMBL5291721, “A preclinical secondary pharmacology resource illuminates target-adverse drug reaction associations of marketed drugs” (Nat Commun, 2023).

Targets include Vasopressin V2 receptor (Homo sapiens, UniProt P30518); Adenosine receptor A2a (Homo sapiens, UniProt P29274); Vasopressin V1a receptor (Homo sapiens, UniProt P37288); Motilin receptor (Homo sapiens, UniProt O43193).
Another test concerns the target T1, Glucocorticoid receptor (Homo sapiens, UniProt P04150).
T1 sequence (P04150 whole entry): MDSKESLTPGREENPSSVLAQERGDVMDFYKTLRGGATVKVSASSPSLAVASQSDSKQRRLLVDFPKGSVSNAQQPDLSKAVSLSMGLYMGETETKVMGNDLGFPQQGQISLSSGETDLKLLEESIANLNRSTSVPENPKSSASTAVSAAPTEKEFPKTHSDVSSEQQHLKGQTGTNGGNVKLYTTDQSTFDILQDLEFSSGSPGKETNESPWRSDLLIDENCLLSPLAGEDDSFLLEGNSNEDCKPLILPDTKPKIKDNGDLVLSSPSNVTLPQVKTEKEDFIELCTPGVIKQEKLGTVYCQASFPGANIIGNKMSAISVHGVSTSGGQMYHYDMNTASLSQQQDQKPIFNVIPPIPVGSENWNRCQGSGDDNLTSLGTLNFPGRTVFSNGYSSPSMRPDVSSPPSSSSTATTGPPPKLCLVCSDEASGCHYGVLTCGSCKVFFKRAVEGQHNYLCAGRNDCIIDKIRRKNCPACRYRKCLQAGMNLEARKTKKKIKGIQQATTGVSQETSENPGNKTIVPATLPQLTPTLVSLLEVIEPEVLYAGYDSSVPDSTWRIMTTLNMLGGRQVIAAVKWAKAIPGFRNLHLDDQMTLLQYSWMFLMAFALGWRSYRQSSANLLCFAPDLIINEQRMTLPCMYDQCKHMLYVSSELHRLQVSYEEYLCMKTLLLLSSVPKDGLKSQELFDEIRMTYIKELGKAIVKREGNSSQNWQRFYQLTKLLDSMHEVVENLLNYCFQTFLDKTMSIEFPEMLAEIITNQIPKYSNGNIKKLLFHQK

Test [1] deals with Glutamate receptor ionotropic, NMDA 1 (Rattus norvegicus, UniProt P35439).
Test [2] concerns the target T2, Gastrin/cholecystokinin type B receptor (Homo sapiens, UniProt P32239).
T2 sequence (P32239 whole entry): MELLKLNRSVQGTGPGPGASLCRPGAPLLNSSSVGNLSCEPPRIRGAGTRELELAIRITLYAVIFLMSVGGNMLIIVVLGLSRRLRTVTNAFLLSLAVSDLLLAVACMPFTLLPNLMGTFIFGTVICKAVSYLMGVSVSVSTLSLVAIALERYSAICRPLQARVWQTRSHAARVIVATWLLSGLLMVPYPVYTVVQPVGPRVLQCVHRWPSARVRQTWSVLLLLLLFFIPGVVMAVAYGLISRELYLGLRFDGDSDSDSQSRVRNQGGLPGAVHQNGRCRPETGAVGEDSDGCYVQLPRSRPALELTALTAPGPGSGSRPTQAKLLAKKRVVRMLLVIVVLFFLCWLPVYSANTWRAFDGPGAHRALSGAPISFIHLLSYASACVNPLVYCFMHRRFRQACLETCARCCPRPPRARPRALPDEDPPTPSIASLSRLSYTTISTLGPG

Test [3] concerns the target T3, Neuropeptide Y receptor type 1 (Homo sapiens, UniProt P25929).
T3 sequence (P25929 whole entry): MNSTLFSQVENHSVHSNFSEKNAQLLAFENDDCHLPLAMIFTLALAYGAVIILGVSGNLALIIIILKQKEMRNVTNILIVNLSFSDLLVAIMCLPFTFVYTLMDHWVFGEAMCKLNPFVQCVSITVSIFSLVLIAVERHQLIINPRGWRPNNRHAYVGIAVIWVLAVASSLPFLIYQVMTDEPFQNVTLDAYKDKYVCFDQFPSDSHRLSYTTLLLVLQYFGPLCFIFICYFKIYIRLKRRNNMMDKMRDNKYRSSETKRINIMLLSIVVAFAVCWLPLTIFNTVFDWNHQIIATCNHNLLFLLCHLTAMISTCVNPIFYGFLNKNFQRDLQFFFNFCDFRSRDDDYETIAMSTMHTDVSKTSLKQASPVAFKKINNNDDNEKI

Another test deals with T4, Progesterone receptor (Homo sapiens, UniProt P06401).
T4 sequence (P06401 whole entry): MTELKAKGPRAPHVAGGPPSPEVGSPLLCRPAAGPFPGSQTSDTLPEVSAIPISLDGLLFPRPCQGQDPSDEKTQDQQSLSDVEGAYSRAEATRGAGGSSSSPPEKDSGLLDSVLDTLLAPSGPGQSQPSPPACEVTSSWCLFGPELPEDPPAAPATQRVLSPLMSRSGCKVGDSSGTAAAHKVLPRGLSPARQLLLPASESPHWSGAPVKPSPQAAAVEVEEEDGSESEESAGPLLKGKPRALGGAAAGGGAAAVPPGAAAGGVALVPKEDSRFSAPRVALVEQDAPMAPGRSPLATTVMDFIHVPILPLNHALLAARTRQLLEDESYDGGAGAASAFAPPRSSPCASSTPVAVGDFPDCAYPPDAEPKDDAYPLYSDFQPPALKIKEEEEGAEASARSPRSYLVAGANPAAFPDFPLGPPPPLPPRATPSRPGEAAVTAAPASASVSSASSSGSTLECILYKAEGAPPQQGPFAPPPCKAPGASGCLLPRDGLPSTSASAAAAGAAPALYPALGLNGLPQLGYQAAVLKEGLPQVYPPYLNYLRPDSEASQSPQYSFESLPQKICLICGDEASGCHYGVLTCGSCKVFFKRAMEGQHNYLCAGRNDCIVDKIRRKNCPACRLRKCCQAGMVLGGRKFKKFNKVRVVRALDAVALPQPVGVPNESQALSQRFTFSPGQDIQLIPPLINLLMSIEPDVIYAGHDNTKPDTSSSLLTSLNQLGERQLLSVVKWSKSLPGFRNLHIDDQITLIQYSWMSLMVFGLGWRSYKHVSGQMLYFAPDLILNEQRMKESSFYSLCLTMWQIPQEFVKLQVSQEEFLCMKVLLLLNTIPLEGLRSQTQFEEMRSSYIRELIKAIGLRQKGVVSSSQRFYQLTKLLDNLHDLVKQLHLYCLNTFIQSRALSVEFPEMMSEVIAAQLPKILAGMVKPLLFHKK
Type of test: functional.

A value given as a limit tells only on which side of the number the result lay.
Note: assay procedure not described here.

Sequence of Adenosine receptor A2a (P29274 whole entry): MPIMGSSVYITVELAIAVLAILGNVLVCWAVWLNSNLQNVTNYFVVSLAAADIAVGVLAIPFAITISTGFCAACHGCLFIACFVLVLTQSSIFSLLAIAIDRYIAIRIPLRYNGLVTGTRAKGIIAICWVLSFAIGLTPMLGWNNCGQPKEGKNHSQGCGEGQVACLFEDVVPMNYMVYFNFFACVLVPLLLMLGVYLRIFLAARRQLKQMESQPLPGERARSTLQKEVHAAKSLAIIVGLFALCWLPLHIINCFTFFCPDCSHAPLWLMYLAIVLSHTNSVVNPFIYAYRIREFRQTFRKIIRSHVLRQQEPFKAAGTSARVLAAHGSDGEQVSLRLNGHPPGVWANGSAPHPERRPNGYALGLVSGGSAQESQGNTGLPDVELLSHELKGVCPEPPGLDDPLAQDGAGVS
Sequence of Vasopressin V1a receptor (P37288 whole entry): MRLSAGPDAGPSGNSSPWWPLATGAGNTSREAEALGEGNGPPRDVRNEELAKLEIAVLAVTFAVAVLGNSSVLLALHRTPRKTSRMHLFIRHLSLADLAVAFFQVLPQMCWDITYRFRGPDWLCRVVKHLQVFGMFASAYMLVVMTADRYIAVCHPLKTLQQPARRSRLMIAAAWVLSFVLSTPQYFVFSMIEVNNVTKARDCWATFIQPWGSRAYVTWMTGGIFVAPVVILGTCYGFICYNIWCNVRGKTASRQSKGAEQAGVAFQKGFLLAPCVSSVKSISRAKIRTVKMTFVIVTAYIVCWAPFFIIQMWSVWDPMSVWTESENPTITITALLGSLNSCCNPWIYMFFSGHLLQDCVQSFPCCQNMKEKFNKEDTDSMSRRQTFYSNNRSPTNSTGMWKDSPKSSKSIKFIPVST
Sequence of Vasopressin V2 receptor (P30518 whole entry): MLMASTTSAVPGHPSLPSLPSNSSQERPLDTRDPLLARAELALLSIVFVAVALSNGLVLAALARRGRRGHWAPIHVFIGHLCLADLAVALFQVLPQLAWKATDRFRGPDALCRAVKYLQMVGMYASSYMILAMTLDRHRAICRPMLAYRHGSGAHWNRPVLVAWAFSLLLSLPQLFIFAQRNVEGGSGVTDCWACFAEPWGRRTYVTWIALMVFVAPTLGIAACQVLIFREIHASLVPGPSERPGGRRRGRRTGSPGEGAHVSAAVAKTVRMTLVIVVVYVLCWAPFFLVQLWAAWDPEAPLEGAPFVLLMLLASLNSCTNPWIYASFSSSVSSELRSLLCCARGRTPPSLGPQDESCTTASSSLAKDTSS
Sequence of Motilin receptor (O43193 whole entry): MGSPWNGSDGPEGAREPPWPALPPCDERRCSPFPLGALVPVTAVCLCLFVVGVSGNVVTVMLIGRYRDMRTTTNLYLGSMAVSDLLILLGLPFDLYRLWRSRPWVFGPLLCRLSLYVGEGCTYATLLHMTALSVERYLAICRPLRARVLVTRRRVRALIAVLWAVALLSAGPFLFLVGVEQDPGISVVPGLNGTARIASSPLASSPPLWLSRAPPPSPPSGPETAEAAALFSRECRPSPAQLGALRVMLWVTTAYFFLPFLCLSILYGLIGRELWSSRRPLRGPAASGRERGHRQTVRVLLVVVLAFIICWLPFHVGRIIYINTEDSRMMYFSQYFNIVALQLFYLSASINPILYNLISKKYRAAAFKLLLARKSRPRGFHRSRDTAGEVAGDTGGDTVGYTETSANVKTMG

Take `COc1cc(C(=O)OCc2cccc(COC(=O)c3cc(OC)c(OC)c(OC)c3)n2)cc(OC)c1OC` [PIROZADIL]: the concentration at half-maximal activity (AC50) (on Glucocorticoid receptor; in [1]; at Vasopressin V2 receptor; in test [2]; at Adenosine receptor A2a; in test [3]) was greater than 30 µM each time. Also, the half-maximal activity concentration (AC50) at Progesterone receptor, on Vasopressin V1a receptor and at Motilin receptor was greater than 30 µM each time.
In the case of `CCC(NC(C)C)C(O)c1ccc(O)c2[nH]c(=O)ccc12` (stereo unspecified) [PROCATEROL], the AC50 (at Glucocorticoid receptor; in test [1]; at Vasopressin V2 receptor; in [2]; on Adenosine receptor A2a; in [3]) was greater than 30 µM each time. The AC50 at Progesterone receptor, on Vasopressin V1a receptor and at Motilin receptor was greater than 30 µM in each case.
As to `CC(CN(C)C)C(C)(O)Cc1ccc(Cl)cc1` (stereo unspecified) [CLOBUTINOL], the AC50 on Glucocorticoid receptor was greater than 30 µM; in test [1], greater than 10 µM; on Vasopressin V2 receptor it was greater than 30 µM; in test [2], greater than 30 µM; on Adenosine receptor A2a, greater than 30 µM; in test [3], greater than 30 µM. Moreover, the AC50 at Progesterone receptor was greater than 30 µM; on Motilin receptor it was greater than 10 µM.
`CCOC(=O)C(C)(C)Oc1ccc(Cl)cc1` [CLOFIBRATE]: the half-maximal activity concentration (AC50) at Glucocorticoid receptor is greater than 30 µM; in test [1], greater than 10 µM; at Vasopressin V2 receptor it was greater than 30 µM; in [2], greater than 30 µM; at Adenosine receptor A2a, greater than 30 µM; in [3], greater than 30 µM. Moreover, the half-maximal activity concentration (AC50) at Vasopressin V1a receptor was greater than 30 µM; at Motilin receptor, greater than 10 µM.
Consider `C[C@]12C/C(=C/O)C(=O)C[C@@H]1CC[C@@H]1[C@@H]2CC[C@@]2(C)[C@H]1CC[C@]2(C)O` [OXYMETHOLONE], for which the AC50 at Glucocorticoid receptor is 21 µM; in test [1], greater than 30 µM; on Vasopressin V2 receptor, greater than 30 µM; in test [2] it was greater than 30 µM; on Adenosine receptor A2a it was greater than 30 µM; in test [3], greater than 30 µM. Moreover, the AC50 at Progesterone receptor is 23 µM; on Motilin receptor, greater than 30 µM.
Turning to `O=C1Nc2ccc(Cl)cc2C(c2ccccc2Cl)=NC1O` (stereo unspecified) [LORAZEPAM], the AC50 on Glucocorticoid receptor was greater than 30 µM; in test [1], greater than 10 µM; on Vasopressin V2 receptor, greater than 30 µM; in test [2], greater than 30 µM; on Adenosine receptor A2a it was greater than 30 µM; in test [3], greater than 30 µM. Also, the AC50 on Vasopressin V1a receptor and at Motilin receptor was greater than 10 µM throughout.
Regarding `Cc1ccnc2c1NC(=O)c1cccnc1N2C1CC1` [NEVIRAPINE], the concentration at half-maximal activity (AC50) at Glucocorticoid receptor is greater than 30 µM; in test [1], greater than 10 µM; on Vasopressin V2 receptor it was greater than 30 µM; in [2], greater than 30 µM; at Adenosine receptor A2a, 15.2 µM; in test [3], greater than 30 µM. In addition, the AC50 at Vasopressin V1a receptor and on Motilin receptor was greater than 10 µM throughout.
With `Fc1ccc([C@@H]2CCNC[C@H]2COc2ccc3c(c2)OCO3)cc1` [PAROXETINE], the AC50 is greater than 30 µM on Glucocorticoid receptor; greater than 10 µM in test [1]; greater than 30 µM at Vasopressin V2 receptor; greater than 30 µM in test [2]; greater than 30 µM on Adenosine receptor A2a; greater than 30 µM in test [3]. The concentration at half-maximal activity (AC50) at Vasopressin V1a receptor and at Motilin receptor was greater than 10 µM each time.
As to `CCN1CC(CCN2CCOCC2)C(c2ccccc2)(c2ccccc2)C1=O` (stereo unspecified) [DOXAPRAM], the AC50 (at Glucocorticoid receptor; in [1]; on Vasopressin V2 receptor; in [2]; at Adenosine receptor A2a; in [3]) was greater than 30 µM in each case. Besides, the AC50 at Progesterone receptor and on Motilin receptor was greater than 30 µM in each case.
For the molecule `COc1cc(C(=O)NC2CCCNC2)cc(OC)c1OC` (stereo unspecified) [TROXIPIDE], the AC50 (at Glucocorticoid receptor; in [1]; on Vasopressin V2 receptor; in [2]; at Adenosine receptor A2a; in [3]) was greater than 30 µM each time. The concentration at half-maximal activity (AC50) on Progesterone receptor and at Motilin receptor was greater than 30 µM in each case.
Take `CCOC(=O)c1ccc(C#Cc2ccc3c(c2)C(C)(C)CCS3)nc1` [TAZAROTENE]: the half-maximal activity concentration (AC50) at Glucocorticoid receptor is greater than 30 µM; in test [1], greater than 10 µM; on Vasopressin V2 receptor it was greater than 30 µM; in test [2], greater than 30 µM; at Adenosine receptor A2a, greater than 30 µM; in [3], greater than 30 µM. This molecule returned an AC50 at Motilin receptor greater than 10 µM.
In the case of `CCOC(=O)[C@@H](N)Cc1ccc(-c2cc(O[C@H](c3ccc(Cl)cc3-n3ccc(C)n3)C(F)(F)F)nc(N)n2)cc1` [TELOTRISTAT ETHYL], the AC50 on Glucocorticoid receptor is 23 µM; in [1], greater than 30 µM; on Vasopressin V2 receptor, greater than 30 µM; in [2] it was greater than 30 µM; at Adenosine receptor A2a, greater than 30 µM; in test [3], greater than 30 µM. Moreover, the AC50 on Progesterone receptor and on Vasopressin V1a receptor was greater than 30 µM each time.
For `COc1cc(N)c(Cl)cc1C(=O)NC1CCN(CCCOc2ccc(F)cc2)CC1OC` (stereo unspecified) [CISAPRIDE], the half-maximal activity concentration (AC50) on Glucocorticoid receptor is greater than 30 µM; in test [1] it was greater than 10 µM; at Vasopressin V2 receptor, greater than 30 µM; in [2] it was greater than 30 µM; at Adenosine receptor A2a, greater than 30 µM; in [3] it was greater than 30 µM. In addition, the half-maximal activity concentration (AC50) on Vasopressin V1a receptor was greater than 30 µM; on Motilin receptor, 1.8 µM.
Regarding `CO/N=C(\C(=O)N[C@@H]1C(=O)N2C(C(=O)O)=CCS[C@H]12)c1csc(N)n1` [CEFTIZOXIME], the half-maximal activity concentration (AC50) (at Glucocorticoid receptor; at Vasopressin V2 receptor; in test [2]; at Adenosine receptor A2a; in test [3]; on Progesterone receptor) was greater than 30 µM each time. The half-maximal activity concentration (AC50) on Vasopressin V1a receptor and at Motilin receptor was greater than 30 µM in each case.
For `CCCCOc1ccc(C(=O)CCN2CCCCC2)cc1` [DYCLONINE], the AC50 at Glucocorticoid receptor is greater than 30 µM; in test [1], greater than 10 µM; at Vasopressin V2 receptor, greater than 30 µM; in [2], greater than 30 µM; at Adenosine receptor A2a it was greater than 30 µM; in [3] it was greater than 30 µM. For the same molecule, the half-maximal activity concentration (AC50) on Vasopressin V1a receptor and on Motilin receptor was greater than 10 µM in each case.
